From patent US10532103B2, “Degradation of cyclin-dependent kinase 9 (CDK9) by conjugation of CDK9 inhibitors with E3 ligase ligand and methods of use” (Dana-Farber Cancer Institute, Inc., priority 2016, dated 2020)
Entries after “also recorded” stand apart in the source; their conditions may differ.

How the values were obtained:
Type in all cases: cell-based
[1] = test system: PolII serine 2 phosphorylation; test: Western blot for PolII serine 2 phosphorylation in Jurkat cells; conditions: various concentrations, 6 hours
Description: (§1) Cells are treated with a control or a bifunctional compound of the application alone or in combination with an agent that blocks proteasomal degradation at a single concentration or various concentrations. After treatment, cells are washed and harvested by resuspending in buffer and lysed on ice 30 minutes. Lysates are then cleared by centrifugation. Samples are boiled and equal amount of protein is loaded onto polyacrylamide gel. The gel is transferred to nitrocellulose and blotted for CDK13, CDK12, CDK9, CDK7, CDK2, CDK1, PolII serine 2 phosphorylation or Tubulin.
(§2) Jurkat cells were treated with a DMSO (as a control) or various concentrations SNS-032 or Compound I-3 for 6 hours. After treatment, cells were washed and harvested by resuspending in RIPA lysis buffer ([…] Tris-HCl, […] NaCl, 1% NP-40, 0.5% sodium deoxycholate, and 1% SDS, pH 7.4, protease and phosphatase inhibitors) and lysed on ice 30 minutes. Equal amount of protein was loaded onto gel and blotted for PolI serine 2 phosphorylation, CDK9, or tubulin.

CDK12 = target: T1, CDK12 (Homo sapiens, UniProt Q9NYV4); test: Enzyme degradation assay (western blot) in Jurkat cells, CDK12; conditions: for degradation of CDK12: 6 hours
T1 construct: endogenous in cells; host or cells: Jurkat cells
T1 sequence (Q9NYV4 whole entry): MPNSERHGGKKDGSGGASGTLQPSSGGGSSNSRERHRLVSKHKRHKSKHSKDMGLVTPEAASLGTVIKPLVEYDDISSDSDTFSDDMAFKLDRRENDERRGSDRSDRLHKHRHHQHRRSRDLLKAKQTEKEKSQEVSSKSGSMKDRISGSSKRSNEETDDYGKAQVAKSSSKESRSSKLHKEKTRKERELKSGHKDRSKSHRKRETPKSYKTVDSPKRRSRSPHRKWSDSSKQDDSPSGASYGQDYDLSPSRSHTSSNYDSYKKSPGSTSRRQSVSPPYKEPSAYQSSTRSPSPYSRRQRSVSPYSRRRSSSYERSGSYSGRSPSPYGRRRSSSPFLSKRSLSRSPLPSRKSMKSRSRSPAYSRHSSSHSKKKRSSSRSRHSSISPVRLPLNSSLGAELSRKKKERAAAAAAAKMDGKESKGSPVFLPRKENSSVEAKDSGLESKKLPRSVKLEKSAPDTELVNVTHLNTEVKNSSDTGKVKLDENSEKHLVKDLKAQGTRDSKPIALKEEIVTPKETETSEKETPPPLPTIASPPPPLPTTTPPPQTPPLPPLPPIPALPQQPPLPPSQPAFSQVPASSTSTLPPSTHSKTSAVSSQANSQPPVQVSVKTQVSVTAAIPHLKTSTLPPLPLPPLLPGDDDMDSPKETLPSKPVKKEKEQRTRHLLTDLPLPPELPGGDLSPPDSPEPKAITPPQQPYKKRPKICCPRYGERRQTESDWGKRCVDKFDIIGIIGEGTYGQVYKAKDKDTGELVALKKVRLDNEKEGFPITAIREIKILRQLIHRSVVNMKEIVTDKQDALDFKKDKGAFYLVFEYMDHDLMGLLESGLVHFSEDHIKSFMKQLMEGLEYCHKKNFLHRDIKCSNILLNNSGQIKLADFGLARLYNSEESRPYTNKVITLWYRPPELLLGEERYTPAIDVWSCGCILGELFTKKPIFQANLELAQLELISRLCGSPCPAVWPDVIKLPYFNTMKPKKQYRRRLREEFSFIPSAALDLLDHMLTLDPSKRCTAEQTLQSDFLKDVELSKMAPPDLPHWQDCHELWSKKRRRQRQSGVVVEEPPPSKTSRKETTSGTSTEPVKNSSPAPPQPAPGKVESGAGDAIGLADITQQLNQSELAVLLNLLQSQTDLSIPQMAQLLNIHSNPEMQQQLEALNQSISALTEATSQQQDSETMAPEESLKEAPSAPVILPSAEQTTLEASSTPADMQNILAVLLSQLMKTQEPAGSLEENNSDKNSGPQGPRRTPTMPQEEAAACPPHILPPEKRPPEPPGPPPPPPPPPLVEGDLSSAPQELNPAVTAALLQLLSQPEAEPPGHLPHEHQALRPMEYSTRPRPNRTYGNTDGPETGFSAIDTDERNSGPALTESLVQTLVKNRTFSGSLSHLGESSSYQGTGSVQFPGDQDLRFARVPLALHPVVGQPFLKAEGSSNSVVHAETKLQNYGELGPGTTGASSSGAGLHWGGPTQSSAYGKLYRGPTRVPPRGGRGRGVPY
T1 sequence (O75909 whole entry partner): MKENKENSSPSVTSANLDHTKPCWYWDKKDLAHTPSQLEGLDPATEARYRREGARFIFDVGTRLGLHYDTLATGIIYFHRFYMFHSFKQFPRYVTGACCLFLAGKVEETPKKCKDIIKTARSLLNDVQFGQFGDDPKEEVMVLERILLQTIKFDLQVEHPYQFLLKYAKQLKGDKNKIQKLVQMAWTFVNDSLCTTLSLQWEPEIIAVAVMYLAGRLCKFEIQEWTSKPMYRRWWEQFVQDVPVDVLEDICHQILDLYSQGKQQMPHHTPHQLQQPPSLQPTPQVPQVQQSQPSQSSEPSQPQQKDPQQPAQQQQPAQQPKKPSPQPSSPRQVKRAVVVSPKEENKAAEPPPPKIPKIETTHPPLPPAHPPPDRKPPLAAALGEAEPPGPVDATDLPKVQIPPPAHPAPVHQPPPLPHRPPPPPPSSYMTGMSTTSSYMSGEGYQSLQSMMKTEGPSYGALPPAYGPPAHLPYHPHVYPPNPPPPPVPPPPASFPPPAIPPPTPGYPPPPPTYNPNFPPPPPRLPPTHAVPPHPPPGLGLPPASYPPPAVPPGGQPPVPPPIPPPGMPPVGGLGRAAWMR
Description: as §1
(§3) Jurkat cells were treated with DMSO (as a control) or 500 nM of SNS-032 or 500 nM of a bifunctional compound of the application (i.e., Compound I-1, Compound I-2, or Compound I-3) or in combination with 5 μM MG132 for 6 hours. MGl32 is an agent that blocks proteasomal degradation. After treatment, cells were washed and harvested by resuspending in RIPA lysis buffer ([…] Tris-HCl, […] NaCl, 1% NP-40, 0.5% sodium deoxycholate, and 1% SDS, pH 7.4, protease and phosphatase inhibitors) and lysed on ice 30 minutes. Lysates were cleared by centrifugation at 15,000 rpm 30 minutes. Samples were boiled and equal amounts of protein were loaded onto gel. The gel was transferred to nitrocellulose and blotted for CDK13, CDK12, CDK9, CDK7, CDK2, CDK1, or tubulin.
as §2, with “500 nM of” for “a DMSO (as a control) or various concentrations SNS-032 or”, “I-3 for 15 minutes, 30 minutes, 1 hour, 2 hours, 3 hours, 4 hours, or 6 hours or DMSO control” for “I-3”, “CDK13, CDK12,” for “PolI serine 2 phosphorylation,”

CDK13 = target: T2, CDK13 (Homo sapiens, UniProt Q14004); test: Enzyme degradation assay (western blot) in Jurkat cells, CDK13
T2 construct: endogenous in cells; host or cells: Jurkat cells
T2 sequence (Q14004 whole entry): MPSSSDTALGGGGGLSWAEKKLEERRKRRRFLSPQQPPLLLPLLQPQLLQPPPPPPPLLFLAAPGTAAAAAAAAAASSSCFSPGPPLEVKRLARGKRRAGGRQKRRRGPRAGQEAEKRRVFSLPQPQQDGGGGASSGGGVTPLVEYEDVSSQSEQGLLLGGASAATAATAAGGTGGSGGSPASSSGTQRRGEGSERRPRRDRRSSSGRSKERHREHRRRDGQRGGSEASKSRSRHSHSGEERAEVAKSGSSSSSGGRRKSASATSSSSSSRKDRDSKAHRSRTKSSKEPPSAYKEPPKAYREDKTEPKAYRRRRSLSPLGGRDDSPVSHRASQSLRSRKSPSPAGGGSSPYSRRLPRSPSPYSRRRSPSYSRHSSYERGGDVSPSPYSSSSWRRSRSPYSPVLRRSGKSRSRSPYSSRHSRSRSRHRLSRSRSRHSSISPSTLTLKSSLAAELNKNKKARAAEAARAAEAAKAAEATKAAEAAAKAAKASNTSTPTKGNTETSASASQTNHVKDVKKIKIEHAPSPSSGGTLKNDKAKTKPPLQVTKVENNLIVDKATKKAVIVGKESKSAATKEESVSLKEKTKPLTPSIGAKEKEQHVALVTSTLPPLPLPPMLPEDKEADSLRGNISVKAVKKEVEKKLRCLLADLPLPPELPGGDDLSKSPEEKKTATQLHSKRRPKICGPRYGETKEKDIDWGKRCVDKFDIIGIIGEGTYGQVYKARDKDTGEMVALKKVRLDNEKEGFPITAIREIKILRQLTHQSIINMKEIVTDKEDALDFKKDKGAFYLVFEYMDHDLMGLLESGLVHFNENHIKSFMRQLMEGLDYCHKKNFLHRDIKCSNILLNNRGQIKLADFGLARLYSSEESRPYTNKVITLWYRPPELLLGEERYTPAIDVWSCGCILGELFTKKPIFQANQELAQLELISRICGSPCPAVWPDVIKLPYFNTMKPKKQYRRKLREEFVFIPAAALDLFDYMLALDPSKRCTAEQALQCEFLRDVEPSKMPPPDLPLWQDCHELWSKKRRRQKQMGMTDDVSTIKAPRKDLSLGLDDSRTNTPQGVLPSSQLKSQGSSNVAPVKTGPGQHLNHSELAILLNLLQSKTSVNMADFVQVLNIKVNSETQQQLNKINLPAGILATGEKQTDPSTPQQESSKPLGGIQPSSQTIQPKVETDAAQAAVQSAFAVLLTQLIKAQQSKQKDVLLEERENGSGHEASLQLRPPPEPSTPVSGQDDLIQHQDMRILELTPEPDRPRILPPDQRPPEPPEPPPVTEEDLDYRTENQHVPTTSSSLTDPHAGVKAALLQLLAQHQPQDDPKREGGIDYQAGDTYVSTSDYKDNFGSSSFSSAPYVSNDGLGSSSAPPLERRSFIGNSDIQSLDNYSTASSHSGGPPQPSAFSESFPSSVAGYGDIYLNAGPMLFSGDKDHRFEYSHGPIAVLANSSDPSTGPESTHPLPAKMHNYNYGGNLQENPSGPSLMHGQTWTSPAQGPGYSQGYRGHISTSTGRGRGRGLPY
T2 sequence (O75909 whole entry partner): as the sequence (O75909 whole entry partner) above
Description: as §1, §3
as §2, with “Alternatively, Jurkat” for “Jurkat”, “with” for “with a”, “of” for “SNS-032 or”, “alone (about 312 nm, 625 nm, 1.25 uM, 2.5 uM, and 5 uM) or with 5 μM MG132.” for “for 6 hours.”, “CDK13,” for “PolI serine 2 phosphorylation,”, “CDK9, CDK7, CDK2, CDK1,” for “CDK9,”
as §2, with “500 nM of” for “a DMSO (as a control) or various concentrations SNS-032 or”, “I-3 for 15 minutes, 30 minutes, 1 hour, 2 hours, 3 hours, 4 hours, or 6 hours or DMSO control” for “I-3”, “CDK13, CDK12,” for “PolI serine 2 phosphorylation,”

CDK9 = target: T3, CDK9 (Homo sapiens, UniProt P50750); test: Enzyme degradation assay (western blot) in Jurkat cells, CDK9
T3 construct: endogenous in cells; host or cells: Jurkat cells
T3 sequence (P50750 whole entry): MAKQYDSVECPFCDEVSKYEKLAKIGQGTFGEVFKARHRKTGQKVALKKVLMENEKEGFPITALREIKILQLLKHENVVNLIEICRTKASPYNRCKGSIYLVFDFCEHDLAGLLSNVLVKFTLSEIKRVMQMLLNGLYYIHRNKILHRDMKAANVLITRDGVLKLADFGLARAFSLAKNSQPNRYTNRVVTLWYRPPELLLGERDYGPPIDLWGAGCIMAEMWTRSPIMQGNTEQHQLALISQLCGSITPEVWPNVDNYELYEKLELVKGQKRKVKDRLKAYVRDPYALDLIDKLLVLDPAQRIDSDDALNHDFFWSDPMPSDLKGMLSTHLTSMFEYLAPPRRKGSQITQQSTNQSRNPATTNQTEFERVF
T3 sequence (O60563 whole entry partner): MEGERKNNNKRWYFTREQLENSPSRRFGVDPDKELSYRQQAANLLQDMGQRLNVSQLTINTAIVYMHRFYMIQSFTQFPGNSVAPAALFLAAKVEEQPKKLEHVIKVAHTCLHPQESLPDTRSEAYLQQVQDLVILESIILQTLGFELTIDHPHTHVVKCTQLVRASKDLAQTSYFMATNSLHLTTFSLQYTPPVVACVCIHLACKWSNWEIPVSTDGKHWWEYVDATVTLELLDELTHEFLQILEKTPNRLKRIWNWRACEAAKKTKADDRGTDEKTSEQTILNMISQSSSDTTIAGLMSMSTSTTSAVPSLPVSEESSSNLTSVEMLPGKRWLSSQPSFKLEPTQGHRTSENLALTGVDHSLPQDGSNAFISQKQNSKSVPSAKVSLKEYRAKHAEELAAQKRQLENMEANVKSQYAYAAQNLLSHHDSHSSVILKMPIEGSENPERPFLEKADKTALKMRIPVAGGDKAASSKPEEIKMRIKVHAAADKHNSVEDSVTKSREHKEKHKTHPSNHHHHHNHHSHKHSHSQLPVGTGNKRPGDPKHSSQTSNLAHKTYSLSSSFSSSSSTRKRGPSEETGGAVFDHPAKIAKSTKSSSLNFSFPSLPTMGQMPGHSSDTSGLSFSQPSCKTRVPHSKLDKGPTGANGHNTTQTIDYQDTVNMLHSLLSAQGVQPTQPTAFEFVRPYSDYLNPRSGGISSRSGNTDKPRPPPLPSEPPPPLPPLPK
Description: as §1, §3
as §2, with “Alternatively, Jurkat” for “Jurkat”, “with” for “with a”, “of” for “SNS-032 or”, “alone (about 312 nm, 625 nm, 1.25 uM, 2.5 uM, and 5 uM) or with 5 μM MG132.” for “for 6 hours.”, “CDK13,” for “PolI serine 2 phosphorylation,”, “CDK9, CDK7, CDK2, CDK1,” for “CDK9,”
as §2
as §2, with “500 nM of” for “a DMSO (as a control) or various concentrations SNS-032 or”, “I-3 for 15 minutes, 30 minutes, 1 hour, 2 hours, 3 hours, 4 hours, or 6 hours or DMSO control” for “I-3”, “CDK13, CDK12,” for “PolI serine 2 phosphorylation,”

[2] = test system: Molt4 cereblon null cells (CRBN−/−); test: Cell viability assay (celltiter glo), cereblon null cells; conditions: cereblon knockout (CRBN−/−) Molt4 cells, titration, 72 hours
Description: (§4) Wild-type or cereblon null cells are treated with various concentrations of a bifunctional compound of the invention and allowed to grow. Cells are then assayed to determine cell viability by measuring the amount of ATP present, which is an indicator of cell metabolic activity. Results are graphed as relative luminescent values.
(§5) Molt4 wild-type or cereblon null cells were treated with a titration of a bifunctional compound of the invention (i.e., Compound I-1, Compound I-2, or Compound I-3) and allowed to grow for 72 hours. Cells were assayed using celltiter glo (Promega) to determine cell viability by measuring the amount of ATP present, which is an indicator of cell metabolic activity. Results are graphed as relative luminescent values.

Molt4 wild-type cells = test: Cell viability assay (celltiter glo), wild-type cells; conditions: wild-type (WT) Molt4 cells, titration, 72 hours
Description: as §4, §5

Row | Compound | serine 2 phosphorylation of PolII [1] | degradation of CDK12 (CDK12; 500 nM) | degradation of CDK13 (CDK13; 500 nM, 6 hours) | degradation of CDK9 (CDK9; 500 nM, 6 hours) | degradation of CDK12 on co-treatment with MG132 (CDK12; 500 nM + 5 uM MG132, 6 hours) | CDK12 levels over time (CDK12; 500 nM, 15 minutes to 6 hours) | degradation of CDK13 on co-treatment with MG132 (CDK13; 500 nM + 5 uM MG132, 6 hours) | CDK13 levels over time (CDK13; 500 nM, 15 minutes to 6 hours) | degradation of CDK13, various concentrations (CDK13; about 312 nm to 5 uM, 6 hours) | degradation of CDK13, various concentrations, with MG132 (CDK13; with 5 μM MG132, 6 hours) | anti-proliferative effect [2] | degradation of CDK9 on co-treatment with MG132 (CDK9; 500 nM + 5 uM MG132, 6 hours) | CDK9 levels over time (CDK9; 500 nM, 15 minutes to 6 hours) | degradation of CDK9, various concentrations (CDK9; about 312 nm to 5 uM, 6 hours) | degradation of CDK9, various concentrations, with MG132 (CDK9; with 5 μM MG132, 6 hours) | anti-proliferative effect (Molt4 wild-type cells)
1 | CC(C)(C)c1cnc(CSc2cnc(NC(=O)C3CCNCC3)s2)o1 [SNS032, N-(5-(((5-(tert-butyl)oxazol-2-yl)methyl)thio)thiazol-2-yl)piperidine-4-carboxamide, reference compound] | decreased serine 2 phosphorylation | no degradation | no degradation | no degradation | – | – | – | – | – | – | – | – | – | – | – | –
2 | CC(C)(C)c1cnc(CSc2cnc(NC(=O)C3CCN(CC(=O)NCCOCCOCCOCCNc4cccc5c4C(=O)N(C4CCC(=O)NC4=O)C5=O)CC3)s2)o1 (centres unmarked) [Compound I-3, N-(5-(((5-(tert-butyl)oxazol-2-yl)methyl)thio)thiazol-2-yl)-1-(14-((2-(2,6-dioxopiperidin-3-yl)-1,3-dioxoisoindolin-4-yl)amino)-2-oxo-6,9,12-trioxa-3-azatetradecyl)piperidine-4-carboxamide] | decreased serine 2 phosphorylation | partial degradation | partial degradation | complete degradation | abolished; also recorded: largely inhibited | unaffected | abolished; also recorded: largely inhibited | unaffected | CDK13 degradation at higher concentrations; also recorded: degradation also increased | abolished | not in the CRBN−/− cells; also recorded: anti-proliferation was no longer observed | reduced; also recorded: largely inhibited | decrease in CDK9 levels over time; also recorded: degradation of CDK9 increased with time of exposure | specificity for CDK9 at lower concentrations; also recorded: degradation also increased | abolished degradation of CDK9 | showed antiproliferative effects; also recorded: caused anti-proliferation
